Laboratory results taken from patent US20260356856A1, “KRAS G12S AND G12C INHIBITORS” (MIRATI THERAPEUTICS, INC., priority 2023, published 2026).

Columns and labels:
[1] = biological target: T1, KRas-mediated phosphorylation of ERK in A549 cells (Homo sapiens, UniProt P01116, G12S); test: Inhibition of KRas-mediated phosphorylation of ERK (HTRF), A549 cells; format: cell-based; details: HTRF pERK, 3 h incubation
T1 construct: pERK HTRF read-out

[2] = biological target: T2, KRas-mediated phosphorylation of ERK in H358 cells (Homo sapiens, UniProt P01116, G12C); test: Inhibition of KRas-mediated phosphorylation of ERK (HTRF), H358 cells; format: cell-based; details: HTRF pERK, 3 h incubation
T2 construct: pERK HTRF read-out
T2 sequence (P01116 1-188 isoform P01116-2 G12C): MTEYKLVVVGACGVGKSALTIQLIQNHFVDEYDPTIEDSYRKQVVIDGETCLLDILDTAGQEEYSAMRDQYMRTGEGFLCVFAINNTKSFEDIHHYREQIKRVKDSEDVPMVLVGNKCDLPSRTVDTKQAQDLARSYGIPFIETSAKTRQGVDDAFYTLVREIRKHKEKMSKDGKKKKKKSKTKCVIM

[3] = biological target: T3, KRas-mediated phosphorylation of ERK in MKN1 cells (Homo sapiens, UniProt P01116); test: Inhibition of KRas-mediated phosphorylation of ERK (HTRF), MKN1 cells; format: cell-based; details: MKN1 cells (KRas WT); HTRF pERK; 3 h incubation
T3 construct: pERK HTRF read-out
T3 sequence (P01116 1-188 isoform P01116-2): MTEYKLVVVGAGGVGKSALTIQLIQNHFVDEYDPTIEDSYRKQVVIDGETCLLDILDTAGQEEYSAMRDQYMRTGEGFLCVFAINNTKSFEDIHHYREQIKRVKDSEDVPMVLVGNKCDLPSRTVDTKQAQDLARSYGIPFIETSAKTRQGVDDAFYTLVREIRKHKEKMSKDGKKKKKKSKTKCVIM
Method: Inhibition of KRas Phosphorylation of ERK (HTRF) by Exemplary Compounds of Formula (Ia) or (Ib)
Cisbio HTRF Advanced pERK Assay Catalog #64AERPEH • Cells: MKN1, PSN1 • Procedure: • 1. Day 1: Seed 6,000 cells/well −25 μl/well in 384-well white solid bottom plate; RPM1_10% FBS. Incubate overnight at 37 °C/5% CO2. • 2.

KRas WT = biological target: T4, KRas WT (Homo sapiens, UniProt P01116); test: KRas binding assay, TR-FRET displacement of Cy5 labelled tracer; details: 60-minute incubation at room temperature, 1% DMSO, pH 7.5
T4 construct: Biotinylated KRas (corresponding to amino acids 1-169, produced at Accelegan Inc.); biotin (biotinylated); purchased Accelegan Inc
T4 sequence (P01116 1-169 isoform P01116-2): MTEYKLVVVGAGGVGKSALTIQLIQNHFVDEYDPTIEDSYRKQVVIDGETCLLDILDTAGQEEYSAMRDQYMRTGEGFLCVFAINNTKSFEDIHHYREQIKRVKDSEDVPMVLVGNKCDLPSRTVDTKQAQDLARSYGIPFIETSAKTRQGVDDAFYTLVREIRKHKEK
Outline: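 Room-temperature incubation (60 min) of compound with biotinylated KRas 1-169, tracer and Tb-streptavidin preceded the TR-FRET read. Final DMSO was 1%; buffer pH 7.5. Percent-of-control values went into a 4-parameter equation to give IC50.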

KRas G12C = biological target: T5, KRas G12C (Homo sapiens, UniProt P01116, G12C); test: as above; details: 60-minute incubation at room temperature, 1% DMSO, pH 7.5
T5 construct: Biotinylated KRas (corresponding to amino acids 1-169, produced at Accelegan Inc.); biotin (biotinylated); purchased Accelegan Inc
T5 sequence (P01116 1-169 isoform P01116-2 G12C): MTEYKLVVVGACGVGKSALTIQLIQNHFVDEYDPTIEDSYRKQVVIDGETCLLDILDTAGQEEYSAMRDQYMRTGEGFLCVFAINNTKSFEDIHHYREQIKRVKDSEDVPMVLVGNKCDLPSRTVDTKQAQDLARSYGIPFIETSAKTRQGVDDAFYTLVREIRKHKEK
Outline: (§1)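 Displacement measured on KRas residues 1-169 (biotinylated, terbium-streptavidin labelled); 1 h, RT; 1% DMSO final; HEPES pH 7.5 / MgCl2 / Tween-20 / DTT. IC50: 4-parameter fit.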

KRas G12S = biological target: T6, KRas G12S (Homo sapiens, UniProt P01116, G12S); test: as above; details: 60-minute incubation at room temperature, 1% DMSO, pH 7.5
T6 construct: Biotinylated KRas (corresponding to amino acids 1-169, produced at Accelegan Inc.); biotin (biotinylated); purchased Accelegan Inc
T6 sequence (P01116 1-169 isoform P01116-2 G12S): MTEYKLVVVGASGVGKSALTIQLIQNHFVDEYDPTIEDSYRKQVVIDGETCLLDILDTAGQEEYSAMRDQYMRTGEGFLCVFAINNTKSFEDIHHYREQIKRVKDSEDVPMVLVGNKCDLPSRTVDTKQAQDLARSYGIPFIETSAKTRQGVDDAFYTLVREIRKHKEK
Outline: as §1

T1 sequence (P01116 1-188 isoform P01116-2 G12S): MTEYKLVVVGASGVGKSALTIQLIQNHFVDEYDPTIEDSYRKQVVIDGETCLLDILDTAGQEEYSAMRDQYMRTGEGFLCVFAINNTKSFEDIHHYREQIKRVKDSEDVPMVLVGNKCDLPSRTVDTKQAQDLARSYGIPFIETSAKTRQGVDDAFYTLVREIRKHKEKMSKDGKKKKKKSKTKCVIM

SMILES	IC50 [1]	IC50 [2]	IC50 [3]	IC50 (KRas WT)	IC50 (KRas G12C)	IC50 (KRas G12S)
CCc1c(F)ccc2cc(O)cc(-c3ncc4c(N(C)CC(C)CC(=O)N(C)C(C)=O)nc(OC[C@@]56CCCN5C[C@H](F)C6)nc4c3F)c12 (stereo partly drawn) [Example 283, N-acetyl-4-((7-(8-ethyl-7-fluoro-3-hydroxynaphthalen-1-yl)-8-fluoro-2-(((2R,7aS)-2-fluorotetrahydro-1H-pyrrolizin-7a(5H)-yl)methoxy)pyrido[4,3-d]pyrimidin-4-yl)(methyl)amino)-N,3-dimethylbutanamide]	701 nM	1320 nM	323 nM	103 nM	183 nM	134 nM
CCc1c(F)ccc2cc(O)cc(-c3ncc4c(N(C)CCC(C)C(=O)N(C)C(C)=O)nc(OC[C@@]56CCCN5C[C@H](F)C6)nc4c3F)c12 (stereo partly drawn) [Example 284, N-acetyl-4-((7-(8-ethyl-7-fluoro-3-hydroxynaphthalen-1-yl)-8-fluoro-2-(((2R,7aS)-2-fluorotetrahydro-1H-pyrrolizin-7a(5H)-yl)methoxy)pyrido[4,3-d]pyrimidin-4-yl)(methyl)amino)-N,2-dimethylbutanamide]	7 nM	39 nM	446 nM	77 nM	8 nM	5 nM
CCc1c(F)ccc2cc(O)cc(-c3ncc4c(N5CCCC(C(=O)N(C)C(C)=O)CC5)nc(OC[C@@]56CCCN5C[C@H](F)C6)nc4c3F)c12 (stereo partly drawn) [Example 285, N-acetyl-1-(7-(8-ethyl-7-fluoro-3-hydroxynaphthalen-1-yl)-8-fluoro-2-(((2R,7aS)-2-fluorotetrahydro-1H-pyrrolizin-7a(5H)-yl)methoxy)pyrido[4,3-d]pyrimidin-4-yl)-N-methylazepane-4-carboxamide]	151 nM	4290 nM	2420 nM	492 nM	882 nM	175 nM
COC(=O)C1CCN(c2nc(OC[C@@]34CCCN3C[C@H](F)C4)nc3c(F)c(-c4ccc(F)c5sc(N)c(C#N)c45)c(Cl)cc23)CC1 [Example 286, Methyl 1-(7-(2-amino-3-cyano-7-fluorobenzo[b]thiophen-4-yl)-6-chloro-8-fluoro-2-(((2R,7aS)-2-fluorotetrahydro-1H-pyrrolizin-7a(5H)-yl)methoxy)quinazolin-4-yl)piperidine-4-carboxylate]	237 nM	106 nM	24 nM	6 nM	11 nM	15 nM
N#Cc1c(N)sc2c(F)ccc(-c3c(Cl)cc4c(N5CCC(C(=O)Oc6ccccc6)CC5)nc(OC[C@@]56CCCN5C[C@H](F)C6)nc4c3F)c12 [Example 287, phenyl 1-(7-(2-amino-3-cyano-7-fluorobenzo[b]thiophen-4-yl)-6-chloro-8-fluoro-2-(((2R,7aS)-2-fluorotetrahydro-1H-pyrrolizin-7a(5H)-yl)methoxy)quinazolin-4-yl)piperidine-4-carboxylate]	104 nM	13 nM	360 nM	170 nM	6 nM	16 nM
N#Cc1c(N)sc2c(F)ccc(-c3c(Cl)cc4c(N5CCC(C(=O)Oc6ccccc6F)CC5)nc(OC[C@@]56CCCN5C[C@H](F)C6)nc4c3F)c12 [Example 288, 2-fluorophenyl 1-(7-(2-amino-3-cyano-7-fluorobenzo[b]thiophen-4-yl)-6-chloro-8-fluoro-2-(((2R,7aS)-2-fluorotetrahydro-1H-pyrrolizin-7a(5H)-yl)methoxy)quinazolin-4-yl)piperidine-4-carboxylate]	77 nM	24 nM	246 nM	143 nM	9 nM	20 nM
